Measurements as given in EP1100483B1, “GLUCOCORTICOID-SELECTIVE ANTI-INFLAMMATORY AGENTS” (Abbott Laboratories, priority 1998, dated 2000).

Molecular target: T1, human glucocorticoid receptor-α [GRX] isoform (Homo sapiens, UniProt P04150)
T1 construct: purchased Ligand Pharmaceuticals (San Diego, CA); host or cells: insect SF21 cells (baculovirus)
T1 sequence (P04150 1-777): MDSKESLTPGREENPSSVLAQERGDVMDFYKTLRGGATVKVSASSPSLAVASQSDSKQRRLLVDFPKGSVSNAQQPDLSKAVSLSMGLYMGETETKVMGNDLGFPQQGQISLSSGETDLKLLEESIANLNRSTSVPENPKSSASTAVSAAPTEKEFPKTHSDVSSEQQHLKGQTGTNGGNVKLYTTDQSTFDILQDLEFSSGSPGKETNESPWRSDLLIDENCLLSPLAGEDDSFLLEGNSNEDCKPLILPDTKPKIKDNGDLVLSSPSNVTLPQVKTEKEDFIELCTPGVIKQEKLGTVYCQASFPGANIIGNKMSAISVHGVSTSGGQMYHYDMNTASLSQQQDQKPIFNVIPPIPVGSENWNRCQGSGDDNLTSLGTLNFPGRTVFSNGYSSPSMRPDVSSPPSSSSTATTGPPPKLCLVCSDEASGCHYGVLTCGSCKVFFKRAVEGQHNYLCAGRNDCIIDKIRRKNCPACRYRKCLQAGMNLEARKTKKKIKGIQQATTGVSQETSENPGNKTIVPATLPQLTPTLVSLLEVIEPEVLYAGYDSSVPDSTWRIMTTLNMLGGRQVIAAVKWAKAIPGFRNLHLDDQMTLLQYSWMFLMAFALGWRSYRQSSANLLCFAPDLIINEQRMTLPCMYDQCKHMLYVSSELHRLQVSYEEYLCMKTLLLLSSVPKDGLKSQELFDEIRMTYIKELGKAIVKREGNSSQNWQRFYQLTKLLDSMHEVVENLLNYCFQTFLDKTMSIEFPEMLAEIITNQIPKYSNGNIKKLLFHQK
Assay: glucocorticoid receptor (GR) cytosol binding assay, [3H]-dexamethasone competition
Conditions: not given
Source text: For glucocorticoid receptor (OR) cytosol binding assays, the procedure described in Anal. […] Briefly, cytosol preparations of human glucocorticoid receptor-α [GRX] isoform and human progesterone receptor-A [PRA] isoform were obtained from Ligand Pharmaceuticals (San Diego, CA). Both receptor cDNAs were cloned into baculovirus expression vectors and expressed in insect SF21 cells. […] Glass fiber type C multiscreen MAFC NOB plates were from Millipore ( Burlington, MA). Hydroxyapatide Bio-Gel HTP gel was obtained from Bio-Rad Laboratories (Hercules. CA). Tris(hydroxymethyl)aminomethane (Tris), ethylenediaminetetraacetic acid (EDTA), glycerol, dithiothreitol (DTT) and sodium moylybdate were obtained from Sigma Chemicals (St. Louis, MO). Microscint-20 scintillation fluid was obtained from Packard Instrument (Meriden, CT). […] GRX and PRA binding reactions were performed in Millipore Multiscreen plates. […] Specific binding was defined as the difference between binding of [^3H]Dex in the absence and in the presence of 1µM unlabeled Dex. After an overnight incubation, 50 µL of hydroxyapatite (25 % weight/volume) slurry were added to each well and plates were incubated for 10 min at 4 °C in a plate shaker. Plates were suctioned with a Millipore vacuum manifold and each well was rinsed with 300 µL of ice-cold binding buffer. A 250 µL aliquot of Packard Microscint-20 was added to each well and the wells were shaken at room temperature for 20 minutes. The amount of radioactivity was determined with a Packard TopCount plate reader.

Compound	Ki [nM]
CN(C)c1ccc(C(c2ccc(N(C)C)cc2)c2ccccc2Br)cc1 [Example 14, 4',4" bis(dimethylamino)-2-bromotriphenylmethane]	1510
CN(C)c1ccc(C(c2ccc(N(C)C)cc2)c2cc(I)ccc2Cl)cc1 [Example 33, 4'.4" bis(dimethylamino)-2-chloro-5-iodotriphenylmethane]	2300
CN(C)c1ccc(C(c2ccc(N(C)C)cc2)c2cc(C(F)(F)F)ccc2Cl)cc1 [Example 17, 4',4" bis(dimethylamino)-2-chloro-5-trifluoromethyltriphenylmethane]	4700
CCCCN(CCCC)c1ccc(C(c2ccc(N(C)C)cc2)c2cc([N+](=O)[O-])ccc2Cl)cc1 (stereo not shown) [Example 43, 4'-dimethylamino-4"-(di-n-butylamino)-2-chloro-5-nitrotriphenylmethane]	4490
Cc1ccccc1C(c1ccc(N(C)C)cc1)c1ccc(N(C)C)cc1 [Example 15, 4',4" bis(dimethylamino)-2-methyltriphenylmethane]	2960
CN(C)c1ccc(C(c2ccc(N(C)C)cc2)c2c(Cl)cccc2Cl)cc1 [Example 20, 4',4" bis(dimethylamino)-2,6-dichlorotriphenylmethane]	1930
Cc1cc(C(c2ccc(N(C)C)cc2)c2cc([N+](=O)[O-])ccc2Cl)ccc1N(C)C (stereo not shown) [Example 44, 3'-methyl-4',4"-bis(dimethylamino)-2-chloro-5-nitrotriphenylmethane]	287

Same assay, conditions: [3H]-Dex ~0.9 nM, GRX cytosol, 4 °C overnight; Cheng-Prusoff; read-out: Ki (nM) GR

Compound	Ki [nM]
CN(C)c1ccc(C(c2ccc(N(C)C)cc2)c2ccccc2Cl)cc1 [Example 7, 4',4" bis(dimethylamino)-2-chlorotriphenylmethane]	1990
CN(C)c1ccc(C(Oc2ccc(Cl)cc2)c2cc([N+](=O)[O-])ccc2Cl)cc1 (stereo not shown) [Example 53, 4-chlorophenyl-[(4'-dimethylaminophenyl)-(2-chloro-5-nitrophenyl)methyl] ether]	788
CN(C)c1ccc(C(O)(c2ccccc2)c2ccccc2Cl)cc1 (stereo not shown) [Example 57, 4'-dimethylamino-2-chlorotriphenylmethanol]	2030
CN(C)c1ccc(C(c2ccc(N(C)C)cc2)c2ccc([N+](=O)[O-])cc2)cc1 [Example 4, 4',4" bis(dimethylamino)-4-nitrotriphenylmethane]	4650
CN(C)c1ccc(C(c2ccc(N(C)C)cc2)c2cc(NC(=O)C3CC3)ccc2Cl)cc1 [Example 62, 4',4" bis(dimethylamino)-2-chloro-5-(cyclopropylcarbamido)-triphenylmethane]	4600
CN(C)c1ccc(C(c2ccc(N(C)C)cc2)c2cc(N=Cc3ccco3)ccc2Cl)cc1 [Example 65, 4',4" bis(dimethylamino)-2-chloro-5-(2-furanylmethylimino)triphenylmethane]	1790
